In one assay the target is T1, Adenosine receptor A1 (Homo sapiens, UniProt P30542).
T1 sequence (P30542 whole entry): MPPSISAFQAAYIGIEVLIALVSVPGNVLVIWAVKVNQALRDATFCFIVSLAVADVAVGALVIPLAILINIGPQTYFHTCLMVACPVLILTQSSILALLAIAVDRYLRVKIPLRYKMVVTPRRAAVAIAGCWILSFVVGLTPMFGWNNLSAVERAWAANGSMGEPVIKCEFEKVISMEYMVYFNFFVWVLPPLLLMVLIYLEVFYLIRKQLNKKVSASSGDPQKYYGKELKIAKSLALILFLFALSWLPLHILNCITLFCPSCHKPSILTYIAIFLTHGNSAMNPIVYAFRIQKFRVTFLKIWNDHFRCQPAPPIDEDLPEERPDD

Assay [1] addresses T2, Muscarinic acetylcholine receptor M2 (Homo sapiens, UniProt P08172).
T2 sequence (P08172 whole entry): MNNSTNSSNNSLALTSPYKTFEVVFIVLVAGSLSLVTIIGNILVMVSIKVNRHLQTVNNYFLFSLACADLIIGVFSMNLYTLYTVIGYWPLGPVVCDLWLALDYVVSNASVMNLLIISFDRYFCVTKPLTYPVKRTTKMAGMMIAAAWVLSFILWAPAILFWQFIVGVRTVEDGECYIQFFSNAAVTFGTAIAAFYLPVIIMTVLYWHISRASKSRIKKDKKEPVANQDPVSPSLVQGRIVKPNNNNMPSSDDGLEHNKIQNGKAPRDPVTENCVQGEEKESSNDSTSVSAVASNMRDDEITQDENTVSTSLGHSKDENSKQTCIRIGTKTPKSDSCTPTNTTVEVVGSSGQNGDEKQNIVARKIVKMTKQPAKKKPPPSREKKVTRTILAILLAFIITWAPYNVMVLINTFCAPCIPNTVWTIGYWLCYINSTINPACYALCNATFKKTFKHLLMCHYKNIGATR
It is filed as functional, cell-based.

Assay [2] addresses T2, Muscarinic acetylcholine receptor M2. It is filed as functional, cell-based. The source holds these as a separate data set.
Assay [3] addresses T3, 5-hydroxytryptamine receptor 1A (Homo sapiens, UniProt P08908).
T3 sequence (P08908 whole entry): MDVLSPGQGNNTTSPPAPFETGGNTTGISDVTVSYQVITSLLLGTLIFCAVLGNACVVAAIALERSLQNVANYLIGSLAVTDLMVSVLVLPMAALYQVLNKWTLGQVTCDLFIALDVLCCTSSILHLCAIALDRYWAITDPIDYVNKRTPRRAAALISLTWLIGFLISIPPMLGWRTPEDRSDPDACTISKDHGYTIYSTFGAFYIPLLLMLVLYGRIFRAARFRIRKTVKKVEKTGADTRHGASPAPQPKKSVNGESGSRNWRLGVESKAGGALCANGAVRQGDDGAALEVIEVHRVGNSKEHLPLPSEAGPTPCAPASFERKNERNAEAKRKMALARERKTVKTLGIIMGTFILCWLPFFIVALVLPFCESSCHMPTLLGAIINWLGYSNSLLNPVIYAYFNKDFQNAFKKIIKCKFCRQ
The format is functional, cell-based.

Assay [4] addresses 5-hydroxytryptamine receptor 2B (Homo sapiens, UniProt P41595). The format is functional, cell-based.
The next assay addresses Melanocortin receptor 3 (Homo sapiens, UniProt P41968).
The target of another assay is Motilin receptor (Homo sapiens, UniProt O43193).
Motilin receptor, sequence (O43193 whole entry): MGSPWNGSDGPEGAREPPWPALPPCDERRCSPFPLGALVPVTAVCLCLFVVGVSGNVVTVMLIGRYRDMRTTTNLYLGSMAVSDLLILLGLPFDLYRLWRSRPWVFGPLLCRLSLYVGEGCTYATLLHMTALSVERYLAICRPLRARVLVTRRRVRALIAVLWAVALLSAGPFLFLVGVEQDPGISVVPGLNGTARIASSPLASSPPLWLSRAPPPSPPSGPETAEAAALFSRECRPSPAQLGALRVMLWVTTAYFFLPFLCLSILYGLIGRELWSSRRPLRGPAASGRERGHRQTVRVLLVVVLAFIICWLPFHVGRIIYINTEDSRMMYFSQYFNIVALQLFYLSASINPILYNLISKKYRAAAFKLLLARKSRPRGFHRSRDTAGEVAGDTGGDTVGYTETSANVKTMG
The target in the next assay is T4, Progesterone receptor (Homo sapiens, UniProt P06401).
T4 sequence (P06401 whole entry): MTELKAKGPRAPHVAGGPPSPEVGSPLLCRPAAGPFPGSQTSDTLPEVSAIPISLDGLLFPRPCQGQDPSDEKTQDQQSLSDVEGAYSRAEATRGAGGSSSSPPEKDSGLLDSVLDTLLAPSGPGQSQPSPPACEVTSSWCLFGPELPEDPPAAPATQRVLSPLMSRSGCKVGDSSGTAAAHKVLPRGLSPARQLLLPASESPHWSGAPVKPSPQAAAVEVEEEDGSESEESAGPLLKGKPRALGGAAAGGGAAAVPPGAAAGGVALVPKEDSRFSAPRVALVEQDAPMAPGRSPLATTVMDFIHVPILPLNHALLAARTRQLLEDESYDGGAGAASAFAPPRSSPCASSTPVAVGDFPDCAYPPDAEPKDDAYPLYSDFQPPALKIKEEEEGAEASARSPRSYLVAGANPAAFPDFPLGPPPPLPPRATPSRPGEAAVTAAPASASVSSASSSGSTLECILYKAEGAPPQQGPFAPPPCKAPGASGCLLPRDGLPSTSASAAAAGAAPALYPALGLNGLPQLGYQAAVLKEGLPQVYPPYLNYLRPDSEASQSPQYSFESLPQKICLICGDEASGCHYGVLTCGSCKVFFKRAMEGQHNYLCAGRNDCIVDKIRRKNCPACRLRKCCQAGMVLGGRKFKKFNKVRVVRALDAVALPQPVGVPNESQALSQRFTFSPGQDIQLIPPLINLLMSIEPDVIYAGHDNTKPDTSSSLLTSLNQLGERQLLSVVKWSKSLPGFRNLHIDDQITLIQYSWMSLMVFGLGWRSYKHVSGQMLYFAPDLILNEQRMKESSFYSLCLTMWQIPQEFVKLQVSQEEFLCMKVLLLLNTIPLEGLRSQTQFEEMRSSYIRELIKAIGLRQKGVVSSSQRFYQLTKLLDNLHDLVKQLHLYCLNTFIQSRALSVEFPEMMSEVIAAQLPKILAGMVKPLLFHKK
The format is functional.

Assay [5] has as its target T5, Equilibrative nucleoside transporter 1 (Homo sapiens, UniProt Q99808).
T5 sequence (Q99808 whole entry): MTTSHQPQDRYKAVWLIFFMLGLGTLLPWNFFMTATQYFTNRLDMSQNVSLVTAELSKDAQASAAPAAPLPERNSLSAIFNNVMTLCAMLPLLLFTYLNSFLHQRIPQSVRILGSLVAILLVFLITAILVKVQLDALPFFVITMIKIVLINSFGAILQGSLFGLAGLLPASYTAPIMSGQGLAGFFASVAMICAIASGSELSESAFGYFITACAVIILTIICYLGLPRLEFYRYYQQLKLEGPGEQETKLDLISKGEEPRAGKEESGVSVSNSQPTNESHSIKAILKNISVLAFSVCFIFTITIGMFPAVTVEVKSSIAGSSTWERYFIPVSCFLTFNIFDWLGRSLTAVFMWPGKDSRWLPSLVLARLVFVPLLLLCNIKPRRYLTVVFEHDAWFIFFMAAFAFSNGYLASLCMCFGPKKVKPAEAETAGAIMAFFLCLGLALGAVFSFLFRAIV

Assay [6] deals with Sodium-dependent dopamine transporter (Homo sapiens, UniProt Q01959).
Sodium-dependent dopamine transporter, sequence (Q01959 whole entry): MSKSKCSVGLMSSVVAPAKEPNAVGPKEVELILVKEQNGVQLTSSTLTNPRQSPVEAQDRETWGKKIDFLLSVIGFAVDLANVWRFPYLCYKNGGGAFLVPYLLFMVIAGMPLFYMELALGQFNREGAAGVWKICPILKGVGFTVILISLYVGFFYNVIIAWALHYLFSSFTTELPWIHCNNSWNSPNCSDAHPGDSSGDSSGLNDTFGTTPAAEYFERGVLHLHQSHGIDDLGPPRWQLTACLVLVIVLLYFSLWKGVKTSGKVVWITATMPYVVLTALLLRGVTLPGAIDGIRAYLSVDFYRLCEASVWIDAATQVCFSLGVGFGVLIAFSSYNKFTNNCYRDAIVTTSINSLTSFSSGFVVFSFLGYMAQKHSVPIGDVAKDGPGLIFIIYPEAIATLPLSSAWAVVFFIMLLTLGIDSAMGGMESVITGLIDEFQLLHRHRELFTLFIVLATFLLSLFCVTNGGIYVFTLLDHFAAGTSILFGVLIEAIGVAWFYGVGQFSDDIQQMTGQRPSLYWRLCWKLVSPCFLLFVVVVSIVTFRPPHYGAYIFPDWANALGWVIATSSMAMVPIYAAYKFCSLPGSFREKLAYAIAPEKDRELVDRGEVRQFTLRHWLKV

For 13 molecules, AC50 results are on record in ChEMBL document CHEMBL5291721, “A preclinical secondary pharmacology resource illuminates target-adverse drug reaction associations of marketed drugs” (Nat Commun, 2023).

Where only a bound is given, the exact number is not on record here.
Further: assay procedure not described here.

Melanocortin receptor 3, sequence (P41968 whole entry): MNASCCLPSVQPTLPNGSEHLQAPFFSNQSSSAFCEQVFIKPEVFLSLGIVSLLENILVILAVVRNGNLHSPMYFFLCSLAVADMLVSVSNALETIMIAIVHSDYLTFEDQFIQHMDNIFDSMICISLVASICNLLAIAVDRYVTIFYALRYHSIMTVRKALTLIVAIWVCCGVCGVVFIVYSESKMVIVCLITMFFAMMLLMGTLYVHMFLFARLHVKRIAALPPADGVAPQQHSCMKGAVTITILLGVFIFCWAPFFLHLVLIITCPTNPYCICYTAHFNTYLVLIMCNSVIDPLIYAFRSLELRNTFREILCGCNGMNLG
5-hydroxytryptamine receptor 2B, sequence (P41595 whole entry): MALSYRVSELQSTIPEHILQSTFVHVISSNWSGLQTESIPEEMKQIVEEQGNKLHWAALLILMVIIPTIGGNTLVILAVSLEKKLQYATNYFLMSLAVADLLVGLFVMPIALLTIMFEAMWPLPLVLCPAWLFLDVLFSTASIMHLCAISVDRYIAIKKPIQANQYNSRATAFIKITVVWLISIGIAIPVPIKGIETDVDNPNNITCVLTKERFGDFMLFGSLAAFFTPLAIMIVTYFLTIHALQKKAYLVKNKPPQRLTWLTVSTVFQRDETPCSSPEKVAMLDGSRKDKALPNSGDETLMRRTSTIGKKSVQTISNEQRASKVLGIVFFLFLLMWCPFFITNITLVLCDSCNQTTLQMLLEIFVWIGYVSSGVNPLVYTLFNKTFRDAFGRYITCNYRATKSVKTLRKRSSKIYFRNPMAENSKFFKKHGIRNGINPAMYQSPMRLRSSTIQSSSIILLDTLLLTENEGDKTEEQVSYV

Usually AC50 stands for the concentration giving half of the maximal activity seen. A lower AC50 goes with greater potency. Take `C[C@@H](NCCCc1cccc(C(F)(F)F)c1)c1cccc2ccccc12`: the AC50 at Adenosine receptor A1 was greater than 30 µM; in assay [1] it was greater than 30 µM; in assay [2], greater than 30 µM; in assay [3], greater than 30 µM; in assay [4] it was greater than 30 µM; at Melanocortin receptor 3, 13 µM. Besides, the AC50 on Motilin receptor was 22 µM; at Progesterone receptor, greater than 30 µM; in assay [5], greater than 30 µM; in assay [6], 6.4 µM.

On to `CCN1CCN(Cc2ccc(Nc3ncc(F)c(-c4cc(F)c5nc(C)n(C(C)C)c5c4)n3)nc2)CC1` [ABEMACICLIB], for which the AC50 (on Adenosine receptor A1; in assay [1]; in [2]; in assay [3]; in assay [4]; at Melanocortin receptor 3) was greater than 30 µM each time. Also, the AC50 (on Motilin receptor; at Progesterone receptor; in assay [5]; in assay [6]) was greater than 30 µM in each case.

As to `COc1cc2nccc(Oc3ccc(NC(=O)C4(C(=O)Nc5ccc(F)cc5)CC4)cc3)c2cc1OC` [CABOZANTINIB], the AC50 (at Adenosine receptor A1; in assay [1]; in [2]; in assay [3]; in assay [4]; on Melanocortin receptor 3) was greater than 30 µM in each case. Moreover, the AC50 (at Motilin receptor; on Progesterone receptor; in assay [5]; in [6]) was greater than 30 µM throughout.

For the molecule `COc1ccccc1OCCNCC(O)COc1cccc2[nH]c3ccccc3c12` (stereo not drawn) [CARVEDILOL], the AC50 at Adenosine receptor A1 was greater than 30 µM; in assay [1] it was greater than 10 µM; in [2] it was greater than 10 µM; in assay [3], 0.04 µM; in assay [4], greater than 30 µM; at Melanocortin receptor 3 it was 28.8 µM. For the same molecule, the AC50 on Motilin receptor was 7.61 µM; at Progesterone receptor, greater than 30 µM; in assay [5] it was 31.7 µM; in assay [6], 4.53 µM.

On to `CN1C[C@H](C(=O)N[C@]2(C)O[C@@]3(O)[C@@H]4CCCN4C(=O)[C@H](Cc4ccccc4)N3C2=O)C=C2c3cccc4[nH]cc(c34)C[C@H]21` [ERGOTAMINE], for which the half-maximal activity concentration (AC50) on Adenosine receptor A1 was greater than 30 µM; in assay [1], greater than 30 µM; in assay [2] it was greater than 30 µM; in assay [3], 0.22 µM; in assay [4], greater than 10 µM; at Melanocortin receptor 3 it was greater than 30 µM. Moreover, the AC50 (on Motilin receptor; on Progesterone receptor; in assay [5]; in assay [6]) was greater than 30 µM in each case.

As for `CN(C)CCC[C@@]1(c2ccc(F)cc2)OCc2cc(C#N)ccc21` [ESCITALOPRAM], the concentration at half-maximal activity (AC50) (at Adenosine receptor A1; in assay [3]; in assay [4]; at Melanocortin receptor 3; at Motilin receptor; on Progesterone receptor) was greater than 30 µM in each case. In assay [5], this molecule gave an AC50 greater than 30 µM.

With `C#C[C@]1(O)CC[C@H]2[C@@H]3CCC4=CC(=O)CC[C@@H]4[C@H]3C(=C)C[C@@]21CC` [ETONOGESTREL], the AC50 in assay [3] and in assay [4] was greater than 30 µM each time.

With `CN(CC1(C)CCCO1)S(=O)(=O)c1ccc(Cl)c(S(N)(=O)=O)c1` (stereo not drawn) [MEFRUSIDE], in assay [4], the AC50 is greater than 30 µM.

In the case of `CC(=O)O[C@]1(C(C)=O)CC[C@H]2[C@@H]3C=C(C)C4=CC(=O)CC[C@@H]4[C@H]3CC[C@@]21C` [NOMEGESTROL ACETATE], the AC50 in assay [1] was greater than 30 µM; in assay [2], greater than 30 µM; in assay [3], greater than 30 µM; in [4] it was greater than 30 µM; at Melanocortin receptor 3 it was greater than 30 µM; on Progesterone receptor it was 0.028 µM. The AC50 in assay [5] and in assay [6] was greater than 30 µM throughout.

With `CC(C)c1nc(N(C)S(C)(=O)=O)nc(-c2ccc(F)cc2)c1/C=C/[C@@H](O)C[C@@H](O)CC(=O)O` [ROSUVASTATIN], the concentration at half-maximal activity (AC50) (at Adenosine receptor A1; in [1]; in assay [2]; in assay [3]; in assay [4]; at Melanocortin receptor 3) was greater than 30 µM in each case. For the same molecule, the AC50 (at Motilin receptor; at Progesterone receptor; in assay [5]; in assay [6]) was greater than 30 µM throughout.

Consider `OC[C@H]1O[C@@](CO)(O[C@H]2O[C@H](CO)[C@@H](O)[C@H](O)[C@H]2O)[C@@H](O)[C@@H]1O` [SUCROSE], for which the AC50 (at Adenosine receptor A1; in assay [1]; in assay [2]; in assay [3]; in assay [4]; at Melanocortin receptor 3) was greater than 30 µM each time. Also, the concentration at half-maximal activity (AC50) (at Motilin receptor; at Progesterone receptor; in [5]; in assay [6]) was greater than 30 µM each time.

Consider `CC(C)(C)NCC(O)c1cc(O)cc(O)c1` (stereo not drawn) [TERBUTALINE], for which the AC50 (at Adenosine receptor A1; at Melanocortin receptor 3; at Motilin receptor; at Progesterone receptor; in assay [5]; in [6]) was greater than 30 µM in each case.

As for `C[C@H](CCC(=O)O)[C@H]1CC[C@H]2[C@@H]3[C@@H](O)C[C@@H]4C[C@H](O)CC[C@]4(C)[C@H]3CC[C@]12C` [URSODIOL], the half-maximal activity concentration (AC50) (at Adenosine receptor A1; in assay [1]; in [2]; in assay [3]; in [4]; at Melanocortin receptor 3) was greater than 30 µM throughout. The concentration at half-maximal activity (AC50) (at Motilin receptor; in assay [5]; in assay [6]) was greater than 30 µM in each case.
